Laboratory results as given in patent publication US20070128217A1 (priority 2003, published 2007).

Tests used:
[1] = test system: antibodies in sera from SARS patients (sera 1a, 1b, 2, 6, 37, 62, London, SARS-yellow, SARS-green); type: binding, human; design: Binding of serum 6 to linear peptides of protein X1 of SARS-CoV Urbani / Binding of serum 37 to linear peptides of protein X1 of SARS-CoV Urbani / Binding of serum 6 to looped/cyclic peptide (PEPSCAN-ELISA) / Binding of serum 37 to looped/cyclic peptide (PEPSCAN-ELISA) / Binding of serum 37 to looped/cyclic peptides of protein X1 of SARS-CoV Urbani / Binding of serum 6 to linear peptides of protein X2 / Binding of serum 37 to linear peptides of protein X2 / Binding of serum 37 to looped/cyclic peptides of protein X2 of SARS-CoV Urbani / Binding of serum 6 to linear peptides of protein M of SARS-CoV Urbani / Binding of serum 37 to linear peptides of protein M of SARS-CoV Urbani / Binding of serum 6 to looped/cyclic peptides of protein M of SARS-CoV Urbani / Binding of serum 37 to looped/cyclic peptides of protein M of SARS-CoV Urbani / Binding of serum 6 to linear peptides of protein X3 of SARS-CoV Urbani / Binding of serum 37 to linear peptides of protein X3 of SARS-CoV Urbani / Binding of serum 37 to looped/cyclic peptides of protein X3 of SARS-CoV Urbani / Binding of serum 6 to linear peptides of protein X4 of SARS-CoV Urbani / Binding of serum 37 to linear peptides of protein X4 of SARS-CoV Urbani / Binding of serum 37 to looped/cyclic peptides of protein X4 of SARS-CoV Urbani / Binding of serum 6 to linear peptides of protein X5 of SARS-CoV Urbani / Binding of serum 37 to linear peptides of protein X5 of SARS-CoV Urbani / Binding of serum 37 to looped/cyclic peptides of protein X5 of SARS-CoV Urbani / Binding of serum 6 to linear peptides of protein N of SARS-CoV Urbani / Binding of serum 37 to linear peptides of protein N of SARS-CoV Urbani / Binding of serum 6 to linear peptide (PEPSCAN-ELISA) / Binding of serum 1a to looped/cyclic peptides of protein N of SARS-CoV Urbani / Binding of serum 1b to looped/cyclic peptides of protein N of SARS-CoV Urbani / Binding of serum 2 to looped/cyclic peptides of protein N of SARS-CoV Urbani / Binding of serum 6 to looped/cyclic peptides of protein N of SARS-CoV Urbani / Binding of serum 37 to looped/cyclic peptides of protein N of SARS-CoV Urbani / Binding of serum 62 to looped/cyclic peptides of protein N of SARS-CoV Urbani / Binding of serum London to looped/cyclic peptides of protein N of SARS-CoV Urbani / Binding of serum SARS-green to looped/cyclic peptides of protein N of SARS-CoV Urbani: unit not given here
[2] = test system: control sera (pooled serum of ten healthy LUMC hospital workers; commercial negative donor pooled serum from the Dutch bloodbank); type: binding, human; design: Binding of Control serum LUMC to linear peptides / Binding of Control serum Blood-bank to linear peptides / Binding of Control serum LUMC to looped peptides / Binding of Control Serum Blood-Bank to Looped peptides / Binding of Control serum LUMC to linear peptides of the protein M of SARS-CoV Urbani / Binding of Control serum Blood-bank to linear peptides of the protein M of SARS-CoV Urbani / Binding of Control serum LUMC to looped peptides of the protein M of SARS-CoV Urbani / Binding of Control Serum Blood-Bank to Looped peptides of the protein M of SARS-CoV Urbani: unit not given here
[3] = test system: rabbit serum obtained by immunizing a rabbit with the SARS-CoV strain Frankfurt 1; type: binding; design: Binding of a rabbit serum to linear peptides / Binding of a rabbit serum to looped peptides / Rabbit serum linear peptides / Rabbit serum looped peptides / Binding of a rabbit serum to linear peptides of protein N of SARS-CoV Urbani (Rabbit serum linear peptides) / Binding of a rabbit serum to looped/cyclic peptides of protein N of SARS-CoV Urbani (Rabbit serum looped peptides): unit not given here
[4] = test system: recombinant human anti-SARS-CoV antibody 03-018; type: binding; design: Binding of antibody 03-018 to linear peptides of the N protein of SARS-CoV Urbani / Binding of antibody 03-018 to looped/cyclic peptides of the N protein of SARS-CoV Urbani: unit not given here

Sequence | Binding of serum 1a to linear peptide (PEPSCAN-ELISA) [1] | Binding of serum 1a to looped/cyclic peptides of protein N of SARS-CoV Urbani [1] | Binding of serum 1b to linear peptide (PEPSCAN-ELISA) [1] | Binding of serum 1b to looped/cyclic peptides of protein N of SARS-CoV Urbani [1] | Binding of serum 2 to linear peptide (PEPSCAN-ELISA) [1] | Binding of serum 2 to looped/cyclic peptides of protein N of SARS-CoV Urbani [1] | Binding of serum 6 to looped/cyclic peptides of protein N of SARS-CoV Urbani [1] | Binding of serum 37 to looped/cyclic peptides of protein N of SARS-CoV Urbani [1] | Binding of serum 62 to looped/cyclic peptides of protein N of SARS-CoV Urbani [1] | Binding of serum London to looped/cyclic peptides of protein N of SARS-CoV Urbani [1] | Binding of serum SARS-green to looped/cyclic peptides of protein N of SARS-CoV Urbani [1] | Binding of serum SARS-yellow to looped/cyclic peptides of protein N of SARS-CoV Urbani [1] | Binding of Control Serum Blood-Bank to Looped peptides [2] | Binding of Control serum Blood-bank to linear peptides [2] | Binding of Control serum LUMC to linear peptides [2] | Binding of Control serum LUMC to looped peptides [2] | Binding of a rabbit serum to linear peptides of protein N of SARS-CoV Urbani (Rabbit serum linear peptides) [3] | Binding of a rabbit serum to looped/cyclic peptides of protein N of SARS-CoV Urbani (Rabbit serum looped peptides) [3] | Binding of antibody 03-018 to linear peptides of the N protein of SARS-CoV Urbani [4] | Binding of antibody 03-018 to looped/cyclic peptides of the N protein of SARS-CoV Urbani [4] | also measured
RLNQLESKVSGKGQQ | 0.3 | 0.4 | 0.2 | 0.3 | 0.3 | 0.5 | 0.4 | 0.6 | 0.7 | 0.4 | 0.4 | 0.8 | 0.6 | 0.8 | 0.7 | 0.7 | 0.2 | 0.6 | 0.1 | 0.2 | Binding of serum 6 to linear peptide (PEPSCAN-ELISA) [1]: 0.2; Binding of serum 37 to linear peptide (PEPSCAN-ELISA) [1]: 0.7; Binding of serum 62 to linear peptide (PEPSCAN-ELISA) [1]: 0.9; Binding of serum London to linear peptide (PEPSCAN-ELISA) [1]: 0.6; Binding of serum SARS-green to linear peptide (PEPSCAN-ELISA) [1]: 0.4; Binding of serum SARS-yellow to linear peptide (PEPSCAN-ELISA) [1]: 0.7
RNGARPKQRRPQGLP |  | 0.2 |  | 0.1 |  | 0.3 | 0.2 | 0.5 | 0.4 | 0.4 | 0.3 | 0.2 | 0.5 | 0.8 | 0.6 | 0.6 | 0.1 | 0.2 | 0.1 | 0.3 | Binding of serum 1a to linear peptides of protein N of SARS-CoV Urbani [1]: 0.2; Binding of serum 1b to linear peptides of protein N of SARS-CoV Urbani [1]: 0.1; Binding of serum 2 to linear peptides of protein N of SARS-CoV Urbani [1]: 0.2; Binding of serum 6 to linear peptides of protein N of SARS-CoV Urbani [1]: 0.2; Binding of serum 37 to linear peptides of protein N of SARS-CoV Urbani [1]: 0.6; Binding of serum 62 to linear peptides of protein N of SARS-CoV Urbani [1]: 0.6; Binding of serum London to linear peptides of protein N of SARS-CoV Urbani [1]: 0.5; Binding of serum SARS-green to linear peptides of protein N of SARS-CoV Urbani [1]: 0.4; Binding of serum SARS-yellow to linear peptides of protein N of SARS-CoV Urbani [1]: 0.5
RNPNNNAATVLQLPQ |  | 0.4 |  | 0.4 |  | 0.7 | 0.3 | 0.8 | 0.9 | 0.6 | 0.6 | 0.4 | 0.8 | 0.7 | 0.7 | 0.9 | 0.1 | 0.8 | 0.1 | 0.2 | Binding of serum 1a to linear peptides of protein N of SARS-CoV Urbani [1]: 0.2; Binding of serum 1b to linear peptides of protein N of SARS-CoV Urbani [1]: 0.1; Binding of serum 2 to linear peptides of protein N of SARS-CoV Urbani [1]: 0.3; Binding of serum 6 to linear peptides of protein N of SARS-CoV Urbani [1]: 0.2; Binding of serum 37 to linear peptides of protein N of SARS-CoV Urbani [1]: 0.6; Binding of serum 62 to linear peptides of protein N of SARS-CoV Urbani [1]: 0.7; Binding of serum London to linear peptides of protein N of SARS-CoV Urbani [1]: 0.5; Binding of serum SARS-green to linear peptides of protein N of SARS-CoV Urbani [1]: 0.3; Binding of serum SARS-yellow to linear peptides of protein N of SARS-CoV Urbani [1]: 0.6
RNSTPGSSRGNSPAR | 0.6 | 0.4 | 0.3 | 0.3 | 0.3 | 0.4 | 0.3 | 0.5 | 0.5 | 0.5 | 0.1 | 0.5 | 0.6 | 0.9 | 0.8 | 0.7 |  |  | 0.1 | 0.2 | Binding of serum 6 to linear peptide (PEPSCAN-ELISA) [1]: 0.2; Binding of serum 37 to linear peptide (PEPSCAN-ELISA) [1]: 0.7; Binding of serum 62 to linear peptide (PEPSCAN-ELISA) [1]: 0.7; Binding of serum London to linear peptide (PEPSCAN-ELISA) [1]: 0.4; Binding of serum SARS-green to linear peptide (PEPSCAN-ELISA) [1]: 0.4; Binding of serum SARS-yellow to linear peptide (PEPSCAN-ELISA) [1]: 0.7; Recognition of the peptide by the rabbit serum [3]: recognized
